According to the supplement of paper PMC11061612:

Experiments:
Test in all cases: Bliss excess, mean over the matrix (fraction); higher = more synergy
[1] = test system: KS-1 (Glioblastoma)
Method in brief: (§1)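 Cell lines grown in DMEM/F12 or RPMI with 10% FBS were plated in 1536-well plates and held 24 hours at 37°C, 5% CO2 before 72 hours of exposure to two-drug dose matrices, with DMSO typically at 0.2%. CellTiter-Glo 2.0 luminescence gave viability, which was converted to inhibition. Vehicle wells were set to 0 and blank wells to 1. Combination Emax is the second-highest inhibition in the matrix, and Bliss excess is the observed combination effect minus the expected EA + EB − EA·EB, where EA and EB are the single-agent effects.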

[2] = test system: SAS (Oral Cavity Carcinoma)
Method in brief: as §1

[3] = test system: LNZTA3WT4 (Low Grade Glioma)
Method in brief: as §1

[4] = test system: A673 (Ewing's Sarcoma)
Method in brief: as §1

[5] = test system: ESS-1 (Other Solid Carcinomas)
Method in brief: as §1

[6] = test system: TGBC1TKB (Biliary Tract Carcinoma)
Method in brief: as §1

[7] = test system: MPP-89 (Mesothelioma)
Method in brief: as §1

[8] = test system: YAPC (Pancreatic Carcinoma)
Method in brief: as §1

[9] = test system: GAMG (Glioblastoma)
Method in brief: as §1

[10] = test system: WSU-NHL (B-Cell Non-Hodgkin's Lymphoma)
Method in brief: as §1

[11] = test system: LOXIMVI (Melanoma)
Method in brief: as §1

[12] = test system: KYAE-1 (Esophageal Adenocarcinoma)
Method in brief: as §1

[13] = test system: EW-11 (Ewing's Sarcoma)
Method in brief: as §1

[14] = test system: SNU-16 (Gastric Carcinoma)
Method in brief: as §1

[15] = test system: SW1573 (Lung Adenocarcinoma)
Method in brief: as §1

[16] = test system: CAL-33 (Oral Cavity Carcinoma)
Method in brief: as §1

[17] = test system: NCI-H2722 (Mesothelioma)
Method in brief: as §1

[18] = test system: OE21 (Esophageal Squamous Cell Carcinoma)
Method in brief: as §1

[19] = test system: FTC-133 (Thyroid Gland Carcinoma)
Method in brief: as §1

[20] = test system: KMRC-20 (Kidney Carcinoma)
Method in brief: as §1

Compound	Bliss excess [1]	Bliss excess [2]	Bliss excess [3]	Bliss excess [4]	Bliss excess [5]	Bliss excess [6]	Bliss excess [7]	Bliss excess [8]	Bliss excess [9]	Bliss excess [10]	Bliss excess [11]	Bliss excess [12]	Bliss excess [13]	Bliss excess [14]	Bliss excess [15]	Bliss excess [16]	Bliss excess [17]	Bliss excess [18]	Bliss excess [19]	Bliss excess [20]
CN(CCO)CC[C@H](CSc1ccccc1)Nc1ccc(S(=O)(=O)NC(=O)c2ccc(N3CCC([C@@H](O)c4ccccc4-c4ccc(Cl)cc4)CC3)cc2)cc1S(=O)(=O)C(F)(F)F [AZD4320] + CC(=O)O[C@H]1C(=O)[C@@]2(C)[C@H]([C@H](OC(=O)c3ccccc3)[C@]3(O)C[C@H](OC(=O)[C@H](O)[C@@H](NC(=O)c4ccccc4)c4ccccc4)C(C)=C1C3(C)C)[C@]1(OC(C)=O)CO[C@@H]1C[C@@H]2O [Paclitaxel] (first compound max 1 µM, 7x7, partner max 3 µM)	0.217	0.0322	0.0016	0.0654	0.0663	0.118	0.108	-0.0321	0.095	0.0294	0.0164	0.0811	0.0303	0.0287						
CN(CCO)CC[C@H](CSc1ccccc1)Nc1ccc(S(=O)(=O)NC(=O)c2ccc(N3CCC([C@@H](O)c4ccccc4-c4ccc(Cl)cc4)CC3)cc2)cc1S(=O)(=O)C(F)(F)F [AZD4320] + CCN(CCO)CCCOc1ccc2c(Nc3cc(CC(=O)Nc4cccc(F)c4)[nH]n3)ncnc2c1 [AZD2811] (first compound max 1 µM, 7x7, partner max 1 µM)	0.0261	-0.037	-0.0224	0.0819	0.21	-0.0478	0.0246	-0.0464	0.119	-0.0295	0.0896	-0.0149	-0.0439	0.0638	0.004	0.0228	-0.024	-0.0212	0.0384	0.0024
CN(CCO)CC[C@H](CSc1ccccc1)Nc1ccc(S(=O)(=O)NC(=O)c2ccc(N3CCC([C@@H](O)c4ccccc4-c4ccc(Cl)cc4)CC3)cc2)cc1S(=O)(=O)C(F)(F)F [AZD4320] + C[C@@H]1COCCN1C2=NC(=NC(=C2)C3(CC3)[S@](=N)(=O)C)C4=C5C=CNC5=NC=C4 [AZD6738] (first compound max 1 µM, 7x7, partner max 10 µM)	0.0082	-0.0255	-0.0029	0.028	-0.0296	-0.0093	-0.0163	-0.0423	-0.0756	-0.104	0.0028	0.0036	0.012	0.0219	-0.0216	0.0019	-0.0307	0.0053	0.0324	-0.0289
CN(CCO)CC[C@H](CSc1ccccc1)Nc1ccc(S(=O)(=O)NC(=O)c2ccc(N3CCC([C@@H](O)c4ccccc4-c4ccc(Cl)cc4)CC3)cc2)cc1S(=O)(=O)C(F)(F)F [AZD4320] + C[C@@H](Nc1cc(F)cc(F)c1)c1cc(C(=O)N(C)C)cc2c(=O)cc(N3CCOCC3)oc12 [AZD8186] (first compound max 1 µM, 7x7, partner max 3 µM)	-0.0166	0.0033	-0.0197	0.0149	-0.01	0.0019	0.0212	-0.0258	0.0337	-0.037	-0.0239	0.011	-0.0358	0.0286	-0.0169	-0.0039	-0.0422	0.0243	0.0718	0.0459
CN(CCO)CC[C@H](CSc1ccccc1)Nc1ccc(S(=O)(=O)NC(=O)c2ccc(N3CCC([C@@H](O)c4ccccc4-c4ccc(Cl)cc4)CC3)cc2)cc1S(=O)(=O)C(F)(F)F [AZD4320] + Cc1cc2ncnn2cc1Nc1ncc2c(n1)n(C1CCOCC1)c(=O)n2C [AZD7648] (first compound max 1 µM, 7x7, partner max 10 µM)	0.0033	-0.0533	-0.0358	0.0069	-0.0373	-0.0343	-0.0105	-0.0465	-0.0633	-0.0087	0.023	-0.0461	-0.0468	0.0237	-0.0592	-0.009	-0.0695	-0.0187	-0.0097	-0.0393
CN(CCO)CC[C@H](CSc1ccccc1)Nc1ccc(S(=O)(=O)NC(=O)c2ccc(N3CCC([C@@H](O)c4ccccc4-c4ccc(Cl)cc4)CC3)cc2)cc1S(=O)(=O)C(F)(F)F [AZD4320] + Nc1ccn([C@@H]2O[C@H](CO)[C@@H](O)C2(F)F)c(=O)n1 [Gemcitabine] (first compound max 1 µM, 7x7, partner max 0.3 µM)	-0.0337	0.0374	-0.0125	0.0335	0.0278	-0.0139	0.0268	0.011	0.103	-0.0505	0.021	0.0074	0.0215	0.0538						
COc1nnc2ccc(N3CCC(c4ccc(OCCN5CCN(C)C(=O)[C@H]5C)cc4)CC3)nn12 [AZD5153] + CN(CC[C@H](CSC1=CC=CC=C1)NC2=C(C=C(C=C2)S(=O)(=O)NC(=O)C3=CC=C(C=C3)N4CCC(CC4)[C@H](C5=CC=CC=C5C6=CC=C(C=C6)Cl)O)S(=O)(=O)C(F)(F)F)CCO [AZD4320] (first compound max 1 µM, 7x7, partner max 1 µM)															0.089	-0.0117	0.0387	0.0129	0.112	0.0384
Cc1cc2ncnn2cc1Nc1ncc2c(n1)n(C1CCOCC1)c(=O)n2C [AZD7648] + C=CCn1c(=O)c2cnc(Nc3ccc(N4CCN(C)CC4)cc3)nc2n1-c1cccc(C(C)(C)O)n1 [AZD1775] (first compound max 10 µM, partner max 1 µM)	0.0297	0.0079	-0.0049	-0.0306	0.0525	-0.0362	0.0215	0.0325	-0.005	0.0072	-0.0123	-0.048	-0.029	-0.0345	-0.0452	0.0238	0.0033	-0.0013	0.0069	-0.0164
Cc1cc2ncnn2cc1Nc1ncc2c(n1)n(C1CCOCC1)c(=O)n2C [AZD7648] + CCN(CCO)CCCOc1ccc2c(Nc3cc(CC(=O)Nc4cccc(F)c4)[nH]n3)ncnc2c1 [AZD2811] (first compound max 10 µM, 7x7, partner max 1 µM)	-0.0405	0.0058	0.0063	-0.0672	0.128	0.0111	0.0023	0.0032	0.0192	-0.0635	-0.0125	-0.002	-0.0298	0.0793	0.0327	-0.0089	0.0323	0.0379	0.0066	0.026
Cc1cc2ncnn2cc1Nc1ncc2c(n1)n(C1CCOCC1)c(=O)n2C [AZD7648] + COc1cc([C@@H]2c3cc4c(cc3[C@@H](O[C@@H]3O[C@@H]5CO[C@@H](C)O[C@H]5[C@H](O)[C@H]3O)[C@H]3COC(=O)[C@H]23)OCO4)cc(OC)c1O [Etoposide] (first compound max 10 µM, 7x7, partner max 10 µM)	0.0894	0.118	0.102	0.111	0.113	0.0108	0.0858	0.0217	0.147	0.0848	0.0988	0.0032	0.0002	0.0953						
CC(=O)c1c(C)c2cnc(Nc3ccc(N4CCNCC4)cn3)nc2n(C2CCCC2)c1=O [Palbociclib] + CN(CC[C@H](CSC1=CC=CC=C1)NC2=C(C=C(C=C2)S(=O)(=O)NC(=O)C3=CC=C(C=C3)N4CCC(CC4)[C@H](C5=CC=CC=C5C6=CC=C(C=C6)Cl)O)S(=O)(=O)C(F)(F)F)CCO [AZD4320] (first compound max 10 µM, 7x7, partner max 1 µM)															-0.0486	-0.0398	-0.0497	0.0269	-0.0778	-0.0504
N#Cc1cnc(Nc2cc(NC[C@H]3CNCCO3)c(C(F)(F)F)cn2)cn1 [SRA737] + C=CCn1c(=O)c2cnc(Nc3ccc(N4CCN(C)CC4)cc3)nc2n1-c1cccc(C(C)(C)O)n1 [AZD1775] (first compound max 10 µM, partner max 1 µM)	0.0472	0.0236	-0.0108	0.0914	0.12	-0.0128	0.041	0.0265	0.0904	0.187	0.0086	0.0021	0.0992	0.109						
N#Cc1cnc(Nc2cc(NC[C@H]3CNCCO3)c(C(F)(F)F)cn2)cn1 [SRA737] + CCc1c2c(nc3ccc(O)cc13)-c1cc3c(c(=O)n1C2)COC(=O)[C@]3(O)CC [SN-38] (first compound max 10 µM, 7x7, partner max 0.3 µM)	-0.0798	-0.0333	-0.002	-0.0511	-0.0091	0.0008	0.0191	-0.041	0.0754	-0.0324	-0.0354	0.0142	-0.132	0.0524						
N#Cc1cnc(Nc2cc(NC[C@H]3CNCCO3)c(C(F)(F)F)cn2)cn1 [SRA737] + O=c1[nH]cc(F)c(=O)[nH]1 [5-Fluorouracil] (first compound max 10 µM, 7x7, partner max 20 µM)	-0.0464	-0.0104	-0.0325	0.0354	-0.0297	-0.0482	0.0355	0.0062	-0.0226	0.0005	-0.0241	0.0202	-0.0246	0.0632						
C[C@@H](c1ccc2nccn2c1)n1nnc2ncc(-c3cnn(C)c3)nc21 [Savolitinib] + CN(CC[C@H](CSC1=CC=CC=C1)NC2=C(C=C(C=C2)S(=O)(=O)NC(=O)C3=CC=C(C=C3)N4CCC(CC4)[C@H](C5=CC=CC=C5C6=CC=C(C=C6)Cl)O)S(=O)(=O)C(F)(F)F)CCO [AZD4320] (first compound max 1 µM, 7x7, partner max 1 µM)															-0.0657	-0.0104	-0.0433	-0.043	-0.056	-0.0048
